According to US20040253268A1, “Biological compositions and methods for treatment of uterine cancer” (priority 2003, published 2004):

What was measured:
[1] = test system: uterine cancer cell line CRL-1622; experiment: Survival in 615 strain mouse model of human uterine cancer (Example 7); type: in vivo; details: 2AY/2NY 0.5 ml/day oral; for Number of live animals remaining in the groups after 30 days of treatment: 30 mice per group, 2MMC 1.2 mg/kg/day s.c.
Description: The following example illustrates the benefit of a biological composition of the invention in a model of human uterine cancer in a 615 strain mouse. The survival time of mice after tumor injection and treatment was studied.
(§1) The biological composition comprising 10^8 cells per ml of activated and conditioned yeast cells of the strain Saccharomyces carlsbergensis Hansen strain AS2.605 was prepared by the methods described in Section 5.1 and subsections therein.
(§2) The animals were prepared in a similar manner as described in Section 6.1. 7.2 Experimental Design The mice injected with tumor cells were immediately divided into 4 experimental groups of ten mice per group and one control group. The four experimental groups were triplicated (i.e., using a total of 120 mice in the experimental groups). In group 2AY, the mice received 0.5 ml of the biological composition once per day. In group 2NY, the mice received 0.5 ml of the untreated yeast cells once per day. In group 2MMC, the mice were injected subcutaneously with 1.2 mg of mitomycin C (MMC) per kg body weight per day. In group 2CK1, the mice received 0.5 ml of physiological saline once per day.
(§3) The mice received the biological composition, untreated yeast cells, MMC or saline on the same day as the tumor cells were transplanted. The mice in group 2CK2 also started receiving saline on the same day as the other four groups. The biological composition, untreated yeast cells and saline were administered orally by a feeding tube and the MMC by subcutaneous injection for 30 consecutive days. The mice were observed over 6 months from the day of tumor inoculation and survival was recorded. The weight of the mice and the weight of the tumor were determined by standard techniques.

[2] = test system: uterine cancer cell line CRL-1622; experiment: Tumor growth in 615 strain mouse model of human uterine cancer (Example 6); type: in vivo, 615 mice; details: day 31 after tumor inoculation; 30 days dosing; AY/NY 0.3 ml/day oral, MMC 0.8 mg/kg/day s.c.
Excerpt: The following example illustrates the benefit of a biological composition of the invention in a 615 strain mouse model of human uterine cancer. The growth of the tumor in the mice was studied.
Murine transplantable uterine cancer type CRL-1622 closely resembles the human uterine cancer pathology. The uterine cancer cell line CRL-1622 can be ordered from the American Type Culture Collection.
as §1
(§4) The animals used to generate the uterine cancer cells for the experiments were female 615 mice (obtainable from the Chinese Academy of Military Medical Sciences, Beijing, China), 4 to 6 months, having an average body weight of about 20 to 22 gram. About 1.2×10^7 viable tumor cells of the uterine cancer cell line CRL-1 622 (obtainable from the Cancer Institute, Chinese Academy of Medical Sciences, Beijing, China) in about 0.2 ml culture suspension were injected subcutaneously into the animals. […]
The mice received the biological composition, untreated yeast cells, MMC or saline on the same day as the tumor cells were transplanted. […] The weight of the mice and the weight of the tumor were determined by standard techniques.

[3] = test system: uterine cancer cell line HTB-114; experiment: Survival in kun ming mouse model of human uterine cancer (Example 9); type: in vivo; details: 2AY/2NY 0.5 ml/day oral; for Number of live animals remaining in the groups after 30 days of treatment: 30 mice per group, 2VCR 4.5 mg/kg/day i.v.
Description: The following example illustrates the benefit of a biological composition of the invention in a kun ming mouse model of human uterine cancer. The survival time of mice after tumor injection and treatment was studied.
The biological composition comprising 10^8 cells per ml of activated and conditioned yeast cells of the strain Saccharomyces cartsbergensis Hansen strain AS2.605 was prepared by the methods described in Section 5.1 and subsections therein.
The animals were prepared in a similar manner as described in Section 8.1.
as §2, with “The” for “The animals were prepared in a similar manner as described in Section 6.1. 7.2 Experimental Design The”, “2VCR,” for “2MMC,”, “intravenously” for “subcutaneously”, “4.5” for “1.2”, “[…] (VCR)” for “mitomycin C (MMC)”
as §3, with “VCR” for “MMC”, “intravenous” for “subcutaneous”

[4] = test system: uterine cancer cell line HTB-114; experiment: Tumor growth in kun ming mouse model of human uterine cancer (Example 8); type: in vivo; details: day 31 after tumor inoculation; 30 days dosing; AY/NY 0.3 ml/day oral, VCR 3 mg/kg/day i.v.
Excerpt: The following example illustrates the benefit of a biological composition of the invention in a kun ming mouse model of human uterine cancer. The growth of the tumor in the mice was studied.
Murine transplantable uterine cancer type HTB-114 closely resembles the human uterine cancer pathology. The uterine cancer cell line HTB-114 can be ordered from the American Type Culture Collection.
as §1
as §4, with “kun ming mouse” for “615 mice”, “5” for “4”, “HTB-114” for “CRL-1 622”
The mice received the biological composition, untreated yeast cells, VCR or saline on the same day as the tumor cells were transplanted. […] The weight of the mice and the weight of the tumor were determined by standard techniques.

[5] = 0 month after cessation of treatment
[6] = 1 month after cessation of treatment
[7] = 2 months after cessation of treatment
[8] = 3 months after cessation of treatment
[9] = 4 months after cessation of treatment
[10] = 5 months after cessation of treatment
[11] = 6 months after cessation of treatment
[12] = surviving mice after 6 months observation, 2MMC 1.2 mg/kg/day s.c. for 30 days
[13] = surviving mice after 6 months observation, 2VCR 4.5 mg/kg/day i.v. for 30 days

Q: How did the “Number of live animals remaining in the groups after 30 days of treatment” value (“Number of live animals remaining” for short) [1, 5] turn out when CO[C@@]12[C@H](COC(N)=O)C3=C(C(=O)C(C)=C(N)C3=O)N1C[C@@H]1N[C@@H]12 [MMC, mitomycin C] was run?
A: 30

Q: What about the “Number of live animals remaining” value [1, 6] of the same compound?
A: 28

Q: And the survival time ([1]; 2MMC 1.2 mg/kg/day s.c. for 30 days, observed over 6 months)?
A: all died during the experiment

Q: And the “Number of live animals remaining” value [1, 7]?
A: 26

Q: What about the “Number of live animals remaining” value [1, 8] of the same compound?
A: 18

Q: And the “Number of live animals remaining” value [1, 9]?
A: 7

Q: What about the “Number of live animals remaining” value [1, 10] of the same compound?
A: 0

Q: And the “Number of live animals remaining” value [1, 11]?
A: 0

Q: What about the “mean weight of mice and standard deviation” value [1, 12] of the same compound?
A: all animals dead

Q: What about the “mean weight of tumor nodules and standard deviation” value [1, 12] of the same compound?
A: all animals dead

Q: What about the “mean weight of mice and standard deviation” value [2] of the same compound?
A: 18.3 ± 3.1 g

Q: And the “mean weight of tumor nodules and standard deviation” value [2]?
A: 3.56 ± 2.32 mg

Q: How did the “Number of live animals remaining” value [3, 5] turn out when CC[C@]1(O)C[C@@H]2CN(CCc3c([nH]c4ccccc34)[C@@](C(=O)OC)(c3cc4c(cc3OC)N(C)[C@H]3[C@@](O)(C(=O)OC)[C@H](OC(C)=O)[C@]5(CC)C=CCN6CC[C@]43[C@@H]65)C2)C1 [VCR, vinblastine] was run?
A: 30

Q: What about the “Number of live animals remaining” value [3, 6] of the same compound?
A: 28

Q: What about the survival time ([3]; 2VCR 4.5 mg/kg/day i.v. for 30 days, observed over 6 months) of the same compound?
A: all died during the experiment

Q: And the “Number of live animals remaining” value [3, 7]?
A: 19

Q: What about the “Number of live animals remaining” value [3, 8] of the same compound?
A: 11

Q: And the “Number of live animals remaining” value [3, 9]?
A: 3

Q: What about the “Number of live animals remaining” value [3, 10] of the same compound?
A: 0

Q: And the “Number of live animals remaining” value [3, 11]?
A: 0

Q: And the “mean weight of mice and standard deviation” value [3, 13]?
A: all animals dead

Q: And the “mean weight of tumor nodules and standard deviation” value [3, 13]?
A: all animals dead

Q: And the “mean weight of mice and standard deviation” value [4]?
A: 18.3 ± 3.3 g

Q: And the “mean weight of tumor nodules and standard deviation” value [4]?
A: 4.36 ± 2.45 g
